Results reported in US12690589B2, “Herbicidal compositions comprising pyroxasulfone” (BASF SE, priority 2024, dated 2026).

Experiments:
Test in all cases: Post-emergence application in field trials, herbicidal activity (damage scale 0 to 100%)
Assay type in all cases: in vivo
[1] = test system: Echinochloa crus-galli (ECHCG); details: stage 23-30, height 15-20 cm
Procedure: (§1) In the examples below, using the method of S. R. Colby (1967) “Calculating synergistic and antagonistic responses of herbicide combinations”, Weeds 15, p. 22ff., the value E, which is expected if the activity of the individual active compounds is only additive, was calculated:
(§2) [formula] • wherein • X=percent activity using active herbicide A at an application rate a; • Y=percent activity using active herbicide B (e.g. pyroxasulfone) at an application rate b; • E=expected activity (in %) by A+B at application rates a+b.
(§3) If the value found experimentally is higher than the value E calculated according to Colby, a synergistic effect is present.
(§4) On field test sites, natural weed infestation or seeded weeds were treated post-emergence of the weeds.
(§5) In the field trials, the weeds were treated as indicated below.
(§6) In the following experiments, the herbicidal activity for the individual herbicidal compositions (solo and mixture applications) was assessed at the indicated days after treatment (DAT). The assessments for the damage on undesired weeds caused by the composition was carried out using a scale from 0 to 100%, compared to the untreated control plants. Here, 0 means no damage and 100 means complete destruction of the plants.
Herbicide A-1 (50 g/l) and pyroxasulfone (85% WG) were, together with addition of 0.5% MSO (methylated seed oil) as adjuvant, formulated in water as distribution medium (water volume 200 l/ha) and sprayed with commercial flat fan nozzles.

[2] = test system: Setaria verticillata (SETVE); details: stage 21-23, height 8-16 cm
Procedure: as §1, §2
(§7) For 3-component mixtures the synergistic response was calculated as described in: Ferry, Nancy; Stanley, Bruce H.; and Armel, Gregory (2005). “DESIGN AND ANALYSIS OF BIOLOGICAL ASSAYS OF MIXTURES,” Conference on Applied Statistics in Agriculture. https://doi.org/10.4148/2475-7772.1133. According to this publication, the Colby calculation can be generalized to a third mixing partner, Z, employing the following formula: […]
as §3, §4, §5, §6
(§8) Herbicide A-1 (342 g/l) and pyroxasulfone (500 g/l) were, together with addition of 0.25 v/v % MSO (methylated seed oil) as adjuvant, formulated in 200 l/ha water as distribution medium and sprayed with commercial flat fan nozzles.
(§9) Herbicide A-1 (342 g/l), pyroxasulfone (500 g/l) and trifludimoxazin (500 g/l) were, together with addition of 0.25 v/v % MSO (methylated seed oil) as adjuvant, formulated in 200 l/ha water as distribution medium and sprayed with commercial flat fan nozzles.
(§10) Herbicide A-1 (342 g/I), pyroxasulfone (500 g/l) and glyphosate-isopropylammonium (356 g/l) were, together with addition of 0.25 v/v % MSO (methylated seed oil) as adjuvant, formulated in 200 l/ha water as distribution medium and sprayed with commercial flat fan nozzles.
(§11) Herbicide A-1 (342 g/l), pyroxasulfone (500 g/l) and glufosinate-P-ammonium (211 g/l) were, together with addition of 0.25 v/v % MSO (methylated seed oil) as adjuvant, formulated in 200 l/ha water as distribution medium and sprayed with commercial flat fan nozzles.
(§12) Herbicide A-1 (342 g/l), pyroxasulfone (500 g/l) and 2,4-D-choline (456 g/l) were, together with addition of 0.25 v/v % MSO (methylated seed oil) as adjuvant, formulated in 200 l/ha water as distribution medium and sprayed with commercial flat fan nozzles.

Zea mays (ZEAMX) = test system: Zea mays (ZEAMX)
Procedure: as §1, §2, §7, §3, §4, §5, §6, §8, §9, §10, §11, §12

[3] = test system: Amaranthus retroflexus (AMARE); details: 21 DAT, stage 31-49, height 10-12 cm
Procedure: as §1, §2, §7, §3, §4, §5, §6, §8, §9, §10, §11, §12

[4] = test system: Digitaria sanguinalis (DIGSA); details: stage 22, height 10-15 cm
Procedure: as §1, §2, §7, §3, §4, §5, §6, §8, §9, §10, §11, §12

[5] = Table 8.2, 21 DAT, g ai/ha A-1 18, B 70, C-12 1066
[6] = 7 DAT, g ai/ha A-1 18, B 70, C-12 252
[7] = 7 DAT, g ai/ha A-1 18, B 90, C-12 252
[8] = 21 DAT, g ai/ha A-1 18, B 90, C-12 252
[9] = 42 DAT, g ai/ha A-1 18, B 90, C-12 252
[10] = Table 8.1, 7 DAT, g ai/ha A-1 18, B 70, C-12 1066

CP(=O)(O)CC[C@H](N)C(=O)O.N [C-12, glufosinate-P-ammonium]
% Herbicidal activity ([1]; 7 DAT, g ai/ha A-1 12.5, B 70, C-12 252): 70%
% Herbicidal activity ([1]; 21 DAT, g ai/ha A-1 12.5, B 70, C-12 252): 60%
% Herbicidal activity ([1]; 28 DAT, g ai/ha A-1 12.5, B 70, C-12 252): 60%
% Herbicidal activity [1, 5]: 10%
% Herbicidal activity ([1]; Table 8.2, 21 DAT, g ai/ha A-1 18, B 90, C-12 1066): 10%
% Herbicidal activity ([1]; Table 8.3, 28 DAT, g ai/ha A-1 18, B 70, C-12 1066): 10%
% Herbicidal activity ([1]; Table 8.3, 28 DAT, g ai/ha A-1 18, B 90, C-12 1066): 10%
% Herbicidal activity [2, 6]: 65%
% Herbicidal activity [2, 7]: 65%
% Herbicidal activity [2, 8]: 65%
% Herbicidal activity ([2]; 42 DAT, g ai/ha A-1 12.5, B 70, C-12 252): 35%
% Herbicidal activity [2, 9]: 35%
% Herbicidal activity [2, 10]: 25%
% Herbicidal activity ([2]; Table 8.2, 21 DAT, g ai/ha A-1 12.5, B 70, C-12 1066): 25%
% Herbicidal activity ([2]; Table 8.4, 42 DAT, g ai/ha A-1 12.5, B 70, C-12 1066): 15%
% Herbicidal activity (Zea mays (ZEAMX); 7 DAT, stage 15-16, height 27-33 cm, g ai/ha A-1 12.5, B 70, C-12 252): 70%
% Herbicidal activity (Zea mays (ZEAMX); 7 DAT, stage 15-16, height 27-33 cm, g ai/ha A-1 18, B 70, C-12 252): 70%
% Herbicidal activity (Zea mays (ZEAMX); 7 DAT, stage 15-16, height 27-33 cm, g ai/ha A-1 18, B 90, C-12 252): 70%
% Herbicidal activity (Zea mays (ZEAMX); 21 DAT, stage 15-16, height 27-33 cm, g ai/ha A-1 12.5, B 70, C-12 252): 60%
% Herbicidal activity (Zea mays (ZEAMX); 21 DAT, stage 15-16, height 27-33 cm, g ai/ha A-1 18, B 70, C-12 252): 60%
% Herbicidal activity (Zea mays (ZEAMX); 21 DAT, stage 15-16, height 27-33 cm, g ai/ha A-1 18, B 90, C-12 252): 60%
% Herbicidal activity (Zea mays (ZEAMX); 42 DAT, stage 15-16, height 27-33 cm, g ai/ha A-1 12.5, B 70, C-12 252): 45%
% Herbicidal activity (Zea mays (ZEAMX); 42 DAT, stage 15-16, height 27-33 cm, g ai/ha A-1 18, B 70, C-12 252): 45%
% Herbicidal activity (Zea mays (ZEAMX); 42 DAT, stage 15-16, height 27-33 cm, g ai/ha A-1 18, B 90, C-12 252): 45%
% Herbicidal activity (Zea mays (ZEAMX); Table 8.1, 7 DAT, stage 15-16, height 50-60 cm, g ai/ha A-1 18, B 70, C-12 1066): 7%
% Herbicidal activity (Zea mays (ZEAMX); Table 8.1, 7 DAT, stage 15-16, height 50-60 cm, g ai/ha A-1 18, B 90, C-12 1066): 7%
% Herbicidal activity ([3]; g ai/ha A-1 18, B 70, C-12 252): 90%
% Herbicidal activity ([3]; g ai/ha A-1 18, B 90, C-12 252): 90%
% Herbicidal activity [4, 6]: 70%
% Herbicidal activity [4, 7]: 70%
% Herbicidal activity ([4]; 21 DAT, g ai/ha A-1 18, B 70, C-12 252): 70%
% Herbicidal activity [4, 8]: 70%
% Herbicidal activity ([4]; 42 DAT, g ai/ha A-1 18, B 70, C-12 252): 55%
% Herbicidal activity [4, 9]: 55%
% Herbicidal activity [4, 10]: 20%
% Herbicidal activity [4, 5]: 20%
% Herbicidal activity ([4]; Table 8.4, 42 DAT, g ai/ha A-1 18, B 70, C-12 1066): 10%
